In patent US20260015358A1, “BICYCLIC DERIVATIVES, COMPOSITIONS AND USES THEREOF” (Danatlas Pharmaceuticals Co., Ltd., priority 2023, published 2026) one finds IC50 data, which are given here for 16 compounds.

In experiment [1] the target is T1, WRN [UniPro: Q14191 (WRN_HUMAN), N500-C946] (Homo sapiens (Human), UniProt Q14191). Nature of the experiment: WRN unwinding assay (FORKF DNA, fluorescence). The format is biochemical. The following applies: Table 14.
The target of experiment [2] is T1, WRN [UniPro: Q14191 (WRN_HUMAN), N500-C946]. Nature of the experiment: WRN ATPase assay (ADP-Glo). The format is biochemical. The following applies: WRN enzymatic activity assay. As to the method:
WRN ATPase assay was initiated to evaluate potential inhibitory effect of compounds for ATP hydrolysis activity of WRN protein. WRN [UniPro: Q14191 (WRN_HUMAN), N500-C946] was expressed and purified in insect system and stored at −80° C. in aliquots. […] ADP quantity produced from ATP hydrolysis by WRN catalytic reaction was measured using a commercially available ADP-Glo Assay (ADP-Glo™ Kinase Assay from Promega, 10000 assays, #V9102). […] Compounds dissolved in DMSO (Sigma, D8418) were plated into a 96-well intermediate plate (BioFil, VWP-032-096) for 3-fold serial titration for 10 points using DMSO, and well-to-well transfer the titrated compounds into another 96-well intermediate plate including assay buffer in advance. Shake the 96-well intermediate plate at 600 rpm for 10 min to fully mix. Specifically, a 4× working mixture of WRN was diluted to a concentration of 8 nM in assay buffer. […] After centrifuging at 1000 rpm and shaking at 500 rpm, the assay plate was pre-incubated for 30 min. Then, 5 μL 2×FORKF DNA and ATP working mixture was dispensed into assay plate. Plate was sealed, centrifuged and incubated for an additional 40 min. at 37° C. The reaction was stopped with the addition of 10 μL of the first ADP-Glo reagent and incubated for 40 min. to remove the excess amount of ATP. Afterwards, 20 μL of ATP detection reagent was added and incubated for 30 min. before reading. Luminescence output was recorded using BMG CLARIO star plus reader. Each concentration of compound was tested in duplicates in the assay plate. Average luminescence signal of high control (Wells with 1% DMSO) was calculated as High Control (HC). Average luminescence signal of low control (Wells with no WRN protein) was calculated as Low control (LC).
IC50 values were determined by fitting the data to the standard 4 parameters with Hill Slope using GraphPad Prism software.
A general note: ADP-Glo first removes unused ATP, then detects ADP through luciferase.

T1 sequence (Q14191 500-946): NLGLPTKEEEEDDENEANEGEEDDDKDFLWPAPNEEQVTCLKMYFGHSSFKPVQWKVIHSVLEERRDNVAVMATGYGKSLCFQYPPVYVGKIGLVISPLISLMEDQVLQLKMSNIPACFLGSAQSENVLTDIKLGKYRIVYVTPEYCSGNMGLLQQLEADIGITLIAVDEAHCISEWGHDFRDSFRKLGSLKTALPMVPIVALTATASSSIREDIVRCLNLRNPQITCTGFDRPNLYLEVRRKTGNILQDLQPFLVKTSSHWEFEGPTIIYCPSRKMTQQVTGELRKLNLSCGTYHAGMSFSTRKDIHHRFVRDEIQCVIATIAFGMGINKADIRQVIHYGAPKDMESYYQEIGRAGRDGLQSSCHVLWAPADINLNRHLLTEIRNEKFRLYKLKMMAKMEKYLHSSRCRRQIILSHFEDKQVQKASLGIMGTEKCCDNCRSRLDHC

As to `CCc1c(N2CCN(C(=O)c3ncnc4c(Cl)c[nH]c34)CC2)c(=O)n2nc(C3=CCOCC3)nc2n1CC(=O)Nc1ccc(C(F)(F)F)cc1Cl` [Example 44, N-(2-Chloro-4-(trifluoromethyl)phenyl)-2-(6-(4-(7-chloro-5H-pyrrolo[3,2-d]pyrimidine-4-carbonyl)piperazin-1-yl)-2-(3,6-dihydro-2H-pyran-4-yl)-5-ethyl-7-oxo-[1,2,4]triazolo[1,5-a]pyrimidin-4(7H)-yl)acetamide], the IC50 in experiment [1] and in experiment [2] was 100 to 1000 nM in each case.
Consider `CCc1c(N2CCN(C(=O)c3cnc4ccsc4c3O)CC2)c(=O)n2nc(C3=CCOCC3)nc2n1CC(=O)Nc1ccc(C(F)(F)F)cc1Cl` [Example 45, N-(2-Chloro-4-(trifluoromethyl)phenyl)-2-(2-(3,6-dihydro-2H-pyran-4-yl)-5-ethyl-6-(4-(7-hydroxythieno[3,2-b]pyridine-6-carbonyl)piperazin-1-yl)-7-oxo-[1,2,4]triazolo[1,5-a]pyrimidin-4(7H)-yl)acetamide], for which the IC50 in experiment [1] and in experiment [2] was < 100 nM in each case.
For `CCc1c(N2CCN(C(=O)c3ncc(F)cc3N)CC2)c(=O)n2nc(C3=CCOCC3)nc2n1CC(=O)Nc1ccc(C(F)(F)F)cc1Cl` [Example 46, 2-(6-(4-(3-Amino-5-fluoropicolinoyl)piperazin-1-yl)-2-(3,6-dihydro-2H-pyran-4-yl)-5-ethyl-7-oxo-[1,2,4]triazolo[1,5-a]pyrimidin-4(7H)-yl)-N-(2-chloro-4-(trifluoromethyl)phenyl)acetamide], the IC50 (in general, the midpoint of a concentration-inhibition curve) in experiment [1] is < 100 nM; in experiment [2] it was 100 to 1000 nM.
The like results for `CCc1c(N2CCN(C(=O)c3n[nH]c(=O)cc3O)CC2)c(=O)n2nc(C3=CCOCC3)nc2n1CC(=O)Nc1ccc(C(F)(F)F)cc1Cl` [Example 48, N-(2-Chloro-4-(trifluoromethyl)phenyl)-2-(2-(3,6-dihydro-2H-pyran-4-yl)-5-ethyl-6-(4-(4-hydroxy-6-oxo-1,6-dihydropyridazine-3-carbonyl)piperazin-1-yl)-7-oxo-[1,2,4]triazolo[1,5-a]pyrimidin-4(7H)-yl)acetamide] were, in that order, < 100 nM and < 100 nM.
Taken in the same sequence, the figures for `CCc1c(N2CCN(C(=O)c3cnc4scnc4c3O)CC2)c(=O)n2nc(C3=CCOCC3)nc2n1CC(=O)Nc1ccc(C(F)(F)F)cc1Cl` [Example 49, N-(2-Chloro-4-(trifluoromethyl)phenyl)-2-(2-(3,6-dihydro-2H-pyran-4-yl)-5-ethyl-6-(4-(7-hydroxythiazolo[5,4-b]pyridine-6-carbonyl)piperazin-1-yl)-7-oxo-[1,2,4]triazolo[1,5-a]pyrimidin-4(7H)-yl)acetamide] were < 100 nM and < 100 nM.
The like results for `CCc1c(N2CCN(C(=O)c3c[nH]c(=O)[nH]c3=O)CC2)c(=O)n2nc(C3=CCOCC3)nc2n1CC(=O)Nc1ccc(C(F)(F)F)cc1Cl` [Example 50, N-(2-Chloro-4-(trifluoromethyl)phenyl)-2-(2-(3,6-dihydro-2H-pyran-4-yl)-6-(4-(2,4-dioxo-1,2,3,4-tetrahydropyrimidine-5-carbonyl)piperazin-1-yl)-5-ethyl-7-oxo-[1,2,4]triazolo[1,5-a]pyrimidin-4(7H)-yl)acetamide] were, in that order, 100 to 1000 nM and < 100 nM.
With `CCOC(=O)c1cnc2oc(C(=O)N3CCN(c4c(CC)n(CC(=O)Nc5ccc(C(F)(F)F)cc5Cl)c5nc(C6=CCOCC6)nn5c4=O)CC3)cc2c1O` [Example 53, Ethyl 2-(4-(4-(2-((2-chloro-4-(trifluoromethyl)phenyl)amino)-2-oxoethyl)-2-(3,6-dihydro-2H-pyran-4-yl)-5-ethyl-7-oxo-4,7-dihydro-[1,2,4]triazolo[1,5-a]pyrimidin-6-yl)piperazine-1-carbonyl)-4-hydroxyfuro[2,3-b]pyridine-5-carboxylate], the IC50 in experiment [1] was 100 to 1000 nM; in experiment [2], < 100 nM.
Taken in the same sequence, the figures for `CCc1c(N2CCN(C(=O)c3nccn(C)c3=O)CC2)c(=O)n2nc(C3=CCOCC3)nc2n1CC(=O)Nc1ccc(C(F)(F)F)cc1Cl` [Example 54, N-(2-Chloro-4-(trifluoromethyl)phenyl)-2-(2-(3,6-dihydro-2H-pyran-4-yl)-5-ethyl-6-(4-(4-methyl-3-oxo-3,4-dihydropyrazine-2-carbonyl)piperazin-1-yl)-7-oxo-[1,2,4]triazolo[1,5-a]pyrimidin-4(7H)-yl)acetamide] were 100 to 1000 nM and 100 to 1000 nM.
On to `CCc1c(N2CCN(C(=O)c3cnc4sccc4c3O)CC2)c(=O)n2nc(C3=CCOCC3)nc2n1CC(=O)Nc1ccc(C(F)(F)F)cc1Cl` [Example 55, N-(2-Chloro-4-(trifluoromethyl)phenyl)-2-(2-(3,6-dihydro-2H-pyran-4-yl)-5-ethyl-6-(4-(4-hydroxythieno[2,3-b]pyridine-5-carbonyl)piperazin-1-yl)-7-oxo-[1,2,4]triazolo[1,5-a]pyrimidin-4(7H)-yl)acetamide], for which the 50% inhibitory concentration (IC50) in experiment [1] and in experiment [2] was < 100 nM each time.
As to `CCc1c(N2CCN(C(=O)c3nnc(C)[nH]c3=O)CC2)c(=O)n2nc(C3=CCOCC3)nc2n1CC(=O)Nc1ccc(C(F)(F)F)cc1Cl` [Example 56, N-(2-Chloro-4-(trifluoromethyl)phenyl)-2-(2-(3,6-dihydro-2H-pyran-4-yl)-5-ethyl-6-(4-(3-methyl-5-oxo-4,5-dihydro-1,2,4-triazine-6-carbonyl)piperazin-1-yl)-7-oxo-[1,2,4]triazolo[1,5-a]pyrimidin-4(7H)-yl)acetamide], the half-inhibitory concentration (IC50) in experiment [1] and in experiment [2] was < 100 nM in each case.
Take `CCc1c(N2CCN(C(=O)c3cnc4[nH]cnc4c3O)CC2)c(=O)n2nc(C3=CCOCC3)nc2n1CC(=O)Nc1ccc(C(F)(F)F)cc1Cl` [Example 57, N-(2-Chloro-4-(trifluoromethyl)phenyl)-2-(2-(3,6-dihydro-2H-pyran-4-yl)-5-ethyl-6-(4-(7-hydroxy-3H-imidazo[4,5-b]pyridine-6-carbonyl)piperazin-1-yl)-7-oxo-[1,2,4]triazolo[1,5-a]pyrimidin-4(7H)-yl)acetamide]: the IC50 in experiment [1] and in experiment [2] was < 100 nM in each case.
As for `CCc1c(N2CCN(C(=O)c3nn(C)c(=O)[nH]c3=O)CC2)c(=O)n2nc(C3=CCOCC3)nc2n1CC(=O)Nc1ccc(C(F)(F)F)cc1Cl` [Example 58, N-(2-Chloro-4-(trifluoromethyl)phenyl)-2-(2-(3,6-dihydro-2H-pyran-4-yl)-5-ethyl-6-(4-(2-methyl-3,5-dioxo-2,3,4,5-tetrahydro-1,2,4-triazine-6-carbonyl)piperazin-1-yl)-7-oxo-[1,2,4]triazolo[1,5-a]pyrimidin-4(7H)-yl)acetamide], the half-maximal inhibitory concentration (IC50) in experiment [1] and in experiment [2] was < 100 nM in each case.
Take `CCc1c(N2CCN(C(=O)c3cn(C)c(=O)[nH]c3=O)CC2)c(=O)n2nc(C3=CCOCC3)nc2n1CC(=O)Nc1ccc(C(F)(F)F)cc1Cl` [Example 59, N-(2-Chloro-4-(trifluoromethyl)phenyl)-2-(2-(3,6-dihydro-2H-pyran-4-yl)-5-ethyl-6-(4-(1-methyl-2,4-dioxo-1,2,3,4-tetrahydropyrimidine-5-carbonyl)piperazin-1-y1)-7-oxo-[1,2,4]triazolo[1,5-a]pyrimidin-4(7H)-yl)acetamide]: the results for the IC50 in experiment [1] and in experiment [2] were < 100 nM and 100 to 1000 nM, respectively.
The like results for `CCc1c(N2CCN(C(=O)c3cccc(C)c3O)CC2)c(=O)n2nc(C3=CCOCC3)nc2n1CC(=O)Nc1ccc(C(F)(F)F)cc1Cl` [Example 60, N-(2-Chloro-4-(trifluoromethyl)phenyl)-2-(2-(3,6-dihydro-2H-pyran-4-yl)-5-ethyl-6-(4-(2-hydroxy-3-methylbenzoyl)piperazin-1-yl)-7-oxo-[1,2,4]triazolo[1,5-a]pyrimidin-4(7H)-yl)acetamide] were, in that order, 100 to 1000 nM and 100 to 1000 nM.
The like results for `CCc1c(N2CCN(C(=O)c3c[nH][nH]c3=O)CC2)c(=O)n2nc(C3=CCOCC3)nc2n1CC(=O)Nc1ccc(C(F)(F)F)cc1Cl` [Example 63, N-(2-Chloro-4-(trifluoromethyl)phenyl)-2-(2-(3,6-dihydro-2H-pyran-4-yl)-5-ethyl-7-oxo-6-(4-(3-oxo-2,3-dihydro-1H-pyrazole-4-carbonyl)piperazin-1-yl)-[1,2,4]triazolo[1,5-a]pyrimidin-4(7H)-yl)acetamide] were, in that order, < 100 nM and < 100 nM.
Taken in the same sequence, the figures for `CCc1c(N2CCN(C(=O)c3cn(C)[nH]c3=O)CC2)c(=O)n2nc(C3=CCOCC3)nc2n1CC(=O)Nc1ccc(C(F)(F)F)cc1Cl` [Example 64, N-(2-Chloro-4-(trifluoromethyl)phenyl)-2-(2-(3,6-dihydro-2H-pyran-4-yl)-5-ethyl-6-(4-(1-methyl-3-oxo-2,3-dihydro-1H-pyrazole-4-carbonyl)piperazin-1-yl)-7-oxo-[1,2,4]triazolo[1,5-a]pyrimidin-4(7H)-yl)acetamide] were < 100 nM and 100 to 1000 nM.
